Measured values published in article PMC9266530 (International Journal of Molecular Sciences, 2022).
Several values for one entry are separate records, joined by “and”; a condition that tells them apart may be missing. Equal values may be shown once. Read-outs that look alike come from different tables or passages of the source.

Experiments:
[1] = molecular target: T1, CYP3A4 (Homo sapiens, UniProt P08684); experiment: Spectral binding titrations (equilibrium ligand binding, type II spectral change); conditions: for Kd: 23 °C, 0.1 M phosphate pH 7.4, quadratic fits to titration plots, read-out: Ks (spectral dissociation constant); for λmax Ferric: ferric ligand-bound CYP3A4; for λmax Ferrous: ferrous ligand-bound CYP3A4; for ΔAmax: maximal absorbance change (peak-to-trough in difference spectrum) relative to that induced by ritonavir; for A421/417: ratio between absorption maxima of ferric ligand-bound and ligand-free CYP3A4
T1 construct: The full-length protein was used for assays and the truncated form was used for crystallization; made in house
Experimental: Spectral Binding Titrations—Equilibrium ligand binding to CYP3A4 was monitored using a Cary 300 spectrophotometer at 23 °C in 0.1 M phosphate buffer, pH 7.4, supplemented with 20% glycerol and 1 mM dithiothreitol. Inhibitors were dissolved in dimethyl sulfoxide (DMSO) and added to a 2 μM protein solution in small aliquots, with the final solvent concentration of <2%. The spectral dissociation constant (Ks) was determined from quadratic fits to the titration plots.
Target sequence in this assay (P08684 whole entry, the tested form may be a part): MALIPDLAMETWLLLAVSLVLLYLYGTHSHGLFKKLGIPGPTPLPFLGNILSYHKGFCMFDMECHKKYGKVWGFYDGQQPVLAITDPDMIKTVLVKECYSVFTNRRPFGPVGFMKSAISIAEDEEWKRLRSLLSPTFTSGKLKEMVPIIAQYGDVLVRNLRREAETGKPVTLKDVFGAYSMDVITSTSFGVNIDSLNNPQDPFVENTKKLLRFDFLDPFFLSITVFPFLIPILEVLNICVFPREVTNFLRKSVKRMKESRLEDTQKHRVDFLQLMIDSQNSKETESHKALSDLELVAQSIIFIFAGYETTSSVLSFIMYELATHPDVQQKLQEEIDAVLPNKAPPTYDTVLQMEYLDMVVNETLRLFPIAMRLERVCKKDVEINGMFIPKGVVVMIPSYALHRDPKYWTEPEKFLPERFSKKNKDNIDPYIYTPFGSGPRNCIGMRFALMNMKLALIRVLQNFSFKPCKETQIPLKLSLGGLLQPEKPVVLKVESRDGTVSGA

[2] = molecular target: T1, CYP3A4; experiment: Inhibitory potency for the BFC O-debenzylase activity in a soluble reconstituted system; assay type: biochemical; conditions: for IC50: BFC debenzylase activity, soluble reconstituted system with cytochrome P450 reductase
Experimental: Inhibitory Potency Assays—The inhibitory potency for the BFC O-debenzylase activity of CYP3A4 was evaluated fluorometrically in a soluble reconstituted system, and the IC50 values were derived from the [% activity] vs. [inhibitor] plots, as described in detail elsewhere.
Target sequence in this assay (P08684 2-503): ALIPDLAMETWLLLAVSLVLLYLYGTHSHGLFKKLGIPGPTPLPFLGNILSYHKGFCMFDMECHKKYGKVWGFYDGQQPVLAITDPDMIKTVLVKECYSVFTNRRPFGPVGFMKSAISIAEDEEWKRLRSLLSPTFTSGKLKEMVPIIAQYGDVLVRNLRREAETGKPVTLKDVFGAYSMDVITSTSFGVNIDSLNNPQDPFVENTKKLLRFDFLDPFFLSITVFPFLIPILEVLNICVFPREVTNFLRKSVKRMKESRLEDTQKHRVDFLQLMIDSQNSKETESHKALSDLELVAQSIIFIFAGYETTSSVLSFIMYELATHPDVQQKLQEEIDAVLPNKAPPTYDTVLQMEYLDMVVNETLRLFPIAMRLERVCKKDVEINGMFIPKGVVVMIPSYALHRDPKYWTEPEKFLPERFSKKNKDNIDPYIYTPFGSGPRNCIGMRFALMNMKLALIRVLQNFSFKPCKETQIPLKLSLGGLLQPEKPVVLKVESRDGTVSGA

[3] = molecular target: T1, CYP3A4; experiment: Thermal denaturation (ligand-dependent change in melting temperature); assay type: binding; conditions: purified CYP3A4 protein solution, pH 7.4, ligand-dependent change in melting temperature of CYP3A4, 1 μM protein, 20 μM ligand
Experimental: Thermal Denaturation—Melting curves were recorded in 0.1 M phosphate buffer, pH 7.4, using a Cary 300 spectrophotometer. Protein (1 μM) was mixed with a ligand (20 μM) and incubated for 15 min at 23 °C. Protein denaturation was monitored at 260 nm using a 0.2 °C measurement step, 0.9 °C/min ramp rate, and 50–75 °C temperature range. The denaturation midpoint (melting temperature; Tm) was determined from non-linear fittings to the melting curve, as described earlier.
Target sequence in this assay (P08684 whole entry, the tested form may be a part): as the sequence (P08684 whole entry, the tested form may be a part) above

[4] = molecular target: T1, CYP3A4; experiment: Stopped-flow kinetics of ligand binding; conditions: for Percentage of the absorbance change taking place during the fast kinetic phase: ligand-binding reaction; for kfast: rate constant for the fast kinetic phase of the ligand-binding reaction
Experimental: Kinetics of Ligand Binding—The kinetics of ligand binding to CYP3A4 were measured at 427 nm in an SX.18MV stopped-flow apparatus (Applied Photophysics, UK), as previously described.
Target sequence in this assay (P08684 whole entry, the tested form may be a part): as above

[5] = molecular target: T1, CYP3A4; experiment: H2O2-dependent heme depletion (heme bleaching) assay; conditions: for Heme Destroyed: 10 mM H2O2, 2 h, relative to ligand-free CYP3A4 = 100%; for kH2O2: rate constant for the H2O2-dependent heme-bleaching reaction, 10 mM H2O2, 16 μM inhibitor
Experimental: H2O2-dependent heme depletion assay—Heme bleaching in ligand-free and inhibitor-bound CYP3A4 (1.6 μM) was monitored at 23 °C in 0.1 M phosphate buffer, pH 7.4. After 10 min of preincubation of CYP3A4 with 16 μM inhibitors, heme decay was initiated by the addition of 10 mM H2O2 (final concentration) and monitored at 420 nm for 2 h. The percentage of heme destroyed was calculated relative to that in ligand-free CYP3A4, considered as 100% decay.
Target sequence in this assay (P08684 whole entry, the tested form may be a part): as above

[6] = molecular target: recombinant CYP3A5 (Homo sapiens, UniProt P20815); experiment: Inhibitory potency against recombinant CYP3A5; assay type: biochemical; conditions: read-out: IC50 estimates
Chain of recombinant CYP3A5 (P20815 whole entry): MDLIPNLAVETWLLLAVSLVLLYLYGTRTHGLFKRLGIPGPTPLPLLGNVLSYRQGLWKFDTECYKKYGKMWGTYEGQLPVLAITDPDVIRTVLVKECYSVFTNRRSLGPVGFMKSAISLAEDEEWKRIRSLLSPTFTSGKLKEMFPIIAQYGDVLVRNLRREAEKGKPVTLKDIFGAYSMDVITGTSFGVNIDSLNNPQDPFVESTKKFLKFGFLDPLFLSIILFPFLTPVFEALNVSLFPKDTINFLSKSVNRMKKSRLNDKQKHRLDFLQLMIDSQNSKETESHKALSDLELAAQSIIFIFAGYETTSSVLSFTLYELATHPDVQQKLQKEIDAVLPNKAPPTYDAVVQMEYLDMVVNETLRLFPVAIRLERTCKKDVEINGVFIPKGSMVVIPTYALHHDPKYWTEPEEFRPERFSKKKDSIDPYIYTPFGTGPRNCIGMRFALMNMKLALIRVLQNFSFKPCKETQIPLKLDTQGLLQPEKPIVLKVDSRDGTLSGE
Excerpt: Thus, one optimization strategy would be the R3 enlargement and branching. […] Our analogues lack the backbone hydroxyl as well, but contain much smaller/chemically simpler end-groups.

[7] = molecular target: T1, CYP3A4; conditions: previously reported analogues; read-out: Ks; cited from earlier work
Target sequence in this assay (P08684 whole entry, the tested form may be a part): as the sequence (P08684 whole entry, the tested form may be a part) above

[8] = molecular target: T1, CYP3A4; conditions: BFC debenzylation activity, same method as in this study; previously reported analogues; cited from earlier work
Target sequence in this assay (P08684 2-503): as the sequence (P08684 2-503) above

[9] = molecular target: T1, CYP3A4; conditions: previously reported analogues; cited from earlier work
Target sequence in this assay (P08684 whole entry, the tested form may be a part): as the sequence (P08684 whole entry, the tested form may be a part) above

| SMILES | Kd ([1]; 2 μM protein) [nM] | λmax Ferric [1] [nm] | λmax Ferrous [1] [nm] | ΔAmax [1] [%] | A421/417 [1] | IC50 [2] [nM] | ΔTm at 15 min, 20 μM [3] [°C] | Percentage of the absorbance change taking place during the fast kinetic phase [4] [%] | kfast [4] | Heme Destroyed [5] | kH2O2 [5] | other results |
| --- | --- | --- | --- | --- | --- | --- | --- | --- | --- | --- | --- | --- |
| CC(C)(C)OC(=O)N[C@H](CS[C@H](Cc1ccccc1)C(=O)NCCc1ccncc1)Cc1ccccc1 [Compound 5b] | 14 ± 2 | 423 | 443 | 126 | 1.06 | 160 ± 20 | 5 | 31 | 18.2 ± 1.8 s⁻¹ | 22% and 22 ± 2% | 0.31 ± 0.03 10^3 × min^−1 | IC50 [6]: 180 to 200 nM |
| O=C(CNC(=O)c1cccnc1)N[C@H](CS[C@H](Cc1ccccc1)C(=O)NCCCc1cccnc1)Cc1ccccc1 [Compound 10b] | 9 ± 1 | 422 | 443 | 110 | 1.10 |  | 7.3 | 29 | 13.7 ± 1.5 s⁻¹ | 19 ± 3% | 0.24 ± 0.03 10^3 × min^−1 | Kd ([1]; human, purified CYP3A4 protein solution, pH 7.4, 2 μM protein): 8 to 9 nM; IC50 ([2]; human, probe BFC (O-debenzylation)): 210 ± 20 nM |
| O=C(CCc1cccnc1)N[C@H](CS[C@H](Cc1ccccc1)C(=O)NCCc1cccnc1)Cc1ccccc1 [Compound 8b] | 53 ± 9 | 421 | 443 | 109 | 1.03 | 820 ± 90 | 4.2 | 24 | 5.6 s⁻¹ and 5.6 ± 0.6 s⁻¹ | 32 ± 3% | 0.44 ± 0.06 10^3 × min^−1 | increase in Ks relative to 4f ([1]; relative to 4f): ~ 20%; increase in IC50 relative to 4f ([2]; relative to 4f): ~ 20% |
| CC(C)(C)OC(=O)N[C@H](CS[C@H](Cc1ccccc1)C(=O)NCC(=O)Nc1cccnc1)Cc1ccccc1 [Compound 4] | 1360 ± 120 | 421 |  | 98 | 0.99 | 1600 ± 200 | 1.9 | 27 | 13.8 s⁻¹ and 13.8 ± 1.5 s⁻¹ | 44 ± 5% | 0.70 ± 0.08 10^3 × min^−1 | fold increase in Ks relative to 3a ([1]; relative to 3a): 100 fold; fold increase in IC50 relative to 3a ([2]; BFC O-debenzylase activity, relative to 3a): 10 fold |
| CC(C)(C)OC(=O)N[C@H](CS[C@H](Cc1ccccc1)C(=O)NCc1cccnc1)Cc1ccccc1 [Compound 4b, reference compound] |  |  |  |  |  |  |  | 31 | 13.2 ± 1.8 s⁻¹ | 39 ± 5% | 0.64 ± 0.07 10^3 × min^−1 | Kd [7]: 63 nM; IC50 [8]: 1190 nM |
| CC(C)(C)OC(=O)N[C@H](CS[C@@H](Cc1ccccc1)C(=O)NCCc1cccnc1)Cc1ccccc1 [Compound 4h, reference compound] |  |  |  |  |  |  |  | 28 | 13.8 ± 2.0 s⁻¹ | 22 ± 3% | 0.32 ± 0.03 10^3 × min^−1 |  |
| CC(C)(C)OC(=O)N[C@H](CS[C@H](Cc1ccccc1)C(=O)NCCc1cccnc1)Cc1ccccc1 [Compound 4f, reference compound] |  |  |  |  |  |  |  | 32 | 11.4 ± 1.4 s⁻¹ | 37% and 37 ± 4% | 0.60 ± 0.08 10^3 × min^−1 | ΔTm [9]: 4.2 °C |
| CC(C)(C)OC(=O)N[C@H](CS[C@H](Cc1ccccc1)C(=O)NCc1ccncc1)Cc1ccccc1 [Compound 5a] | 34 ± 5 | 422 | 443 | 105 | 1.07 | 310 ± 30 | 5.2 | 34 | 22.5 ± 3.1 s⁻¹ | 22% and 22 ± 3% | 0.31 ± 0.04 10^3 × min^−1 | fold improvement in binding affinity relative to 4f ([1]; relative to 4f): 2.2 fold; fold improvement in inhibitory potency relative to 4f ([2]; relative to 4f): 1.3 fold |
| CC(C)(C)OC(=O)N[C@H](CS[C@H](Cc1ccccc1)C(=O)NCCCc1cccnc1)Cc1ccccc1 [Compound 3a, reference compound] |  |  |  |  |  |  |  | 36 | 12.5 ± 1.3 s⁻¹ | 18% and 18 ± 2% | 0.21 ± 0.03 10^3 × min^−1 | IC50 [8]: 160 nM; ΔTm [9]: 8.1 °C |
| O=C(N[C@H](CS[C@H](Cc1ccccc1)C(=O)NCCCc1cccnc1)Cc1ccccc1)c1cccnc1 [Compound 10a] | 8 ± 1 | 422 | 444 | 111 | 1.11 | 150 ± 20 | 7.2 | 30 | 15.4 ± 1.8 s⁻¹ | 13 ± 2% | 0.17 ± 0.02 10^3 × min^−1 | improvement in heme protection relative to 3a ([5]; relative to the Boc-containing 3a): 5%; IC50 [6]: 180 to 200 nM |
| O=C(CCc1cccnc1)N[C@H](CS[C@@H](Cc1ccccc1)C(=O)NCCc1cccnc1)Cc1ccccc1 [Compound 8c] |  |  |  |  |  | 210 ± 30 |  |  |  | 24 ± 2% | 0.32 ± 0.03 10^3 × min^−1 | IC50 [6]: 180 to 200 nM |
| O=C(Cc1cccnc1)N[C@H](CS[C@H](Cc1ccccc1)C(=O)NCc1cccnc1)Cc1ccccc1 [Compound 8a] | 120 ± 10 | 421 | 443 | 96 | 1.03 | 600 ± 40 | 3.6 | 26 | 10.3 s⁻¹ and 10.3 ± 1.2 s⁻¹ | 39 ± 4% | 0.66 ± 0.10 10^3 × min^−1 |  |
